Reference: a melting point compilation (Tetko et al.; mined from patent text by program, amines drawn as free bases though some values may be those of a salt)

Row | SMILES | melting point [°C]
1 | CN1C(=O)N(c2c(Cl)cccc2Cl)Cc2cnc(Nc3ccc(F)cc3)nc21 | 208 to 211
2 | N#Cc1cnn2cccc2c1NC1(c2ccc(Cl)cc2Cl)CC1 | 208
3 | CCn1c(N)c(-c2ncc[nH]2)c(=O)c2ccc(C#CC(O)(c3ccccc3)C(F)(F)F)nc21 (configuration not stated) | 260
4 | CCN1C(=O)C(C(=O)Nc2ccccc2S(C)=O)c2cc3c(cc21)CCO3 (configuration not stated) | 137 to 138
5 | Fc1ccc(CBr)c(I)c1 | 71 to 73
6 | CSCC[C@H](NC(=O)N[C@@H](CCSC)C(=O)O)C(=O)O | 167 to 180
7 | O=C(O)c1cnc2n(c1=O)CCCC2=NNc1ccccc1 | 267 to 268
8 | O=C(Nc1ccc(Br)c(Br)c1[N+](=O)[O-])C(F)(F)F | 107 to 109
9 | CCCN(CCC)c1c([N+](=O)[O-])cc(C)c(C(C)C)c1[N+](=O)[O-] | 48.5 to 49
10 | CCCCCCCCCCCCCCCCCCCCCCC(COC(C)=O)(COC(C)=O)NC(C)=O | 94 to 95
11 | NC(=NCC(F)(F)F)Nc1ccnc(OCCCCO)n1.[H][H] | 189 to 190
12 | COc1cc2c(cc1OCc1ccccc1)CCN(Cc1cccc(C)c1)C2 | 81 to 82
13 | CC(C)(C)OC1C2C=CC1C1N=NC21 (configuration not stated) | 78
14 | FC(F)(F)c1ccc2c(Nc3ccccc3)ncnc2c1 | 230 to 232
15 | CC(=O)N(c1ccc(F)c(Cl)c1)c1ncnc2cc(OCCCN3CCOCC3)c([N+](=O)[O-])cc12 | 154
16 | COc1ccc(N2CCN(c3c(C)c(C)c4c(c3-c3ccc(N(C)C)cc3)CC(C)(C)O4)CC2)cc1 | 177 to 179
17 | CC(C)(C)c1ccccc1N1CCN(C(=O)CCC(=O)O)CC1 | 175 to 176
18 | Cc1cc(COc2ccc(Cl)cc2CN)on1 | 32 to 35
19 | COC(=O)COc1ccc([N+](=O)[O-])c(F)c1 | 93 to 94
20 | CCCCOC(=O)Cc1cc(O)c(C)cc1O | 113
21 | Cc1nn(-c2cc(OC(C)C)c(Cl)cc2Cl)c(=O)[nH]c1=O | 163 to 164
22 | NC(=O)c1c(-c2cccc(F)c2)c(Br)n2c1CNCC2 | 216 to 218
23 | O=C(c1ccc2nonc2c1)N(C1CCOCC1)C1CC1 | 108 to 109
24 | COc1ccc([N+](=O)[O-])cc1CC#N | 100
25 | Cc1cc(N)nc(CCc2nc3cc(-c4ccccc4)cnc3[nH]2)c1 | 230

Row | SMILES | melting point [°C]
26 | CCOC(=O)c1cccc(N2C(=O)C=CC2=O)c1C(=O)OCC | 86 to 90
27 | C#CC1(O)CCC2(C)C(CCC3C2CCC2(C)C(C(C)=O)CCC32)C1 (configuration not stated) | 196 to 197
28 | C=CS(=O)(=O)NCCCc1ccc(C2=NNC(=O)CC2)cc1 | 133 to 135
29 | OCc1ccc(OCc2ccccc2)cc1O | 88 to 90
30 | O=[N+]([O-])c1ccc(F)c(Br)c1F | 50 to 51.5
31 | CCCN(CCCN1CCc2cc(OC)c(OC)cc2CC1=O)CCc1ccc(OC)c(OC)c1 | 56 to 70
32 | CNc1nc(C)c(-c2ccnc(Nc3cccc(CC(=O)OCCOC)c3)n2)s1 | 193 to 195
33 | COc1ccc(C(=O)Nc2c[nH]nc2C(=O)NCCC#N)cc1 | 199 to 200
34 | CCOC(=O)c1cc(C(=O)OCC)n(C(C)c2ccccn2)n1 (configuration not stated) | 63 to 65
35 | CCCCOC(=O)C=Nc1cc(Cl)ccc1C(=O)O | 130
36 | CCCCN(CCCC)C(=O)N1CCc2ccc(S(=O)(=O)NC(=O)NC3CCCCC3)cc2CC1 | 118 to 120
37 | Cc1cc(SCC(=O)NCCc2ccccc2)nc(N)n1 | 114 to 121
38 | CCc1nn(C2CCCC2)c2cc(C(=O)Nc3c(Cl)cccc3Cl)ccc12 | 177 to 179
39 | COc1c(C(=O)O)cc(Cl)c(N)c1C | 151
40 | COc1ccc(C2(C)CCC(=O)O2)cc1OC (configuration not stated) | 71.2
41 | CN(Cc1cccc(-c2ccc(CC3SC(=O)NC3=O)cc2)c1)C(=O)c1ccc(O)cc1 (configuration not stated) | 110
42 | CC(NC(=O)OCc1ccccc1)P(C)(=O)O (configuration not stated) | 118 to 119
43 | COc1ccc(Cl)cc1C(=O)NCCc1ccc(C=C(C)C(=O)O)cc1 | 188 to 191
44 | CC(=O)Nc1ccccc1OCCCN1CCC(c2noc3cc(F)ccc23)CC1 | 118 to 120
45 | COc1ccc(-c2ccc3cnc(Nc4ccc(C5CCN(CC(N)=O)CC5)cc4)nn23)cn1 | 217
46 | CC=CCNc1cc(C(=O)O)cc(S(N)(=O)=O)c1-c1ccccc1 | 186 to 187
47 | Cc1ccc(NC(=O)Nc2ccc(N(CCCl)CCCl)cc2)cc1Nc1c2cccc(C)c2nc2c(C(=O)NCCN(C)C)cccc12 | 286 to 289
48 | CCOP(=O)(CN1CCC(N(C)S(=O)(=O)c2ccc(Nc3nccc(Nc4ccc(F)c(F)c4)n3)cc2)CC1)OCC | 138
49 | Cc1ccc(N2CCCCC2)c(C(C)C(C(N)=O)c2ccc(C(=O)O)cc2)c1 (configuration not stated) | 215 to 217
50 | CCc1c(S(=O)(=O)c2ccc(O)cc2)cnn1C | 188 to 190

Further lines, results first:

Row | melting point [°C] | SMILES
51 | 138 | CC1(C)C(C(=O)O)C1C(C(Cl)(Br)C(F)(F)F)S(C)(=O)=O (configuration not stated)
52 | 212 | CC(C)(C)COc1ccc(-n2ncc(C(=O)O)c2Cl)cc1C#N
53 | 151 | Oc1cccc([C@H]2CC[C@@H](c3ccccc3)N2)c1 (racemic)
54 | 161 to 163 | COc1cn(-c2ccc(-n3c(=O)ccn3C(F)F)cc2F)nc(-c2ccnn2-c2ccccc2)c1=O
55 | 298 to 300 | CC(=O)N1CCN(c2ncc3c(=O)c(C(=O)O)c[nH]c3n2)CC1
56 | 148 | CC1C(=O)N(c2ccc(O)cc2)C(=S)N1c1ccc(Oc2ccc(F)cc2)cc1 (configuration not stated)
57 | 177 to 178 | Cc1oc(-c2ccccc2)nc1CNC(=O)c1ccc(Cn2cc(CCC(=O)O)c(-c3ccccc3)n2)cc1
58 | 116 | CC(CNC1CC(C)(C)NC(C)(C)C1)C(=O)NC1CC(C)(C)NC(C)(C)C1 (configuration not stated)
59 | 142 to 144 | Nc1ncnc2c1ncn2CCCN1CCC(COc2ccccc2)CC1
60 | 192 to 195 | CN1CC(C(Oc2ccccc2[N+](=O)[O-])c2ccccc2)OCC1=O (configuration not stated)
61 | 56 to 57 | CSCc1cnc(Cl)nc1
62 | 214 to 217 | COc1cc2ncc(C#N)c(Nc3cccc(Cl)c3)c2cc1OC
63 | 159 to 161 | c1ccc(CC2CCN(Cc3ccn(-c4ccccc4)c3)CC2)cc1
64 | 120 to 122 | COc1ccc(NC(=O)c2ccc(C3=NC(C)(C)Cc4cc(OC)c5c(c43)CC(C)(C)O5)cc2)cc1
65 | 133 to 134 | Cc1ncccc1CCCC(C)NC(=O)C(O)c1ccccc1 (configuration not stated)
66 | > 260 | NC(=O)c1sc2cnccc2c1Oc1ccc(C(=O)N2CCOCC2)cc1
67 | 196 to 198 | O=c1c(-c2ccccc2O)coc2cc(O)ccc12
68 | 52 to 56 | CN(C)CCCN1C(=O)c2cscc2N(C)c2ccccc21
69 | < 70 | CC1(C)CCC(C)(C)c2cc(-c3cc(-c4ccc(C(=O)O)cc4)ccc3-c3cccc(O)c3)ccc21
70 | 242 | COc1ccc(C2=NNC(=O)[C@H]3CC=CC[C@@H]23)c2c1OC(C)(C)C2 (relative stereo)
71 | 166 | COC(=O)C1CC(O)CN1C(=O)c1cc2c(cc1[N+](=O)[O-])OCO2 (configuration not stated)
72 | 153 to 155 | COc1ccc(-c2nc3cccnc3n2CC(=O)N2CCCCC2)cc1
